Molecules are shown by their SMILES.

The assay addresses T1, human CRHR2-alpha (Homo sapiens, UniProt Q13324).
T1 construct: host or cells: CHO-K1
T1 sequence (Q13324 1-411): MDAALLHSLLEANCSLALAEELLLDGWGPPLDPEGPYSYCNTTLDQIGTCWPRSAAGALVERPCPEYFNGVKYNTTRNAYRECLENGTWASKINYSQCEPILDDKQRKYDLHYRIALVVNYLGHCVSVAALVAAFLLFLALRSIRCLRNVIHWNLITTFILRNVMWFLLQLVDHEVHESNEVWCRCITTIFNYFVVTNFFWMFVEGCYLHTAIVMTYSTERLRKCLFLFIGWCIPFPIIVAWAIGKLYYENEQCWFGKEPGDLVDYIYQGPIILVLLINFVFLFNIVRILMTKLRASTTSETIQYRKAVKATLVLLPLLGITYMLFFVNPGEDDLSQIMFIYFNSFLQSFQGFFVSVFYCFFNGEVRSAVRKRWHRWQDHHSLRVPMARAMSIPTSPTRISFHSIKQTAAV
In words: cAMP functional assay for human CRHR2 (LANCE Ultra TR-FRET). The class given is cell-based. Particulars: inhibition of cAMP production in CHO-K1 cells stably expressing human CRHR2-alpha, EC90 of human urocortin2 as agonist; read-out: IC50 against CRHR2. As for the experimental part:
cAMP functional assay for human CRHR2 The ability of the compounds of this invention to inhibit either CRHR2 is assessed by 3′,5′-cyclic adenosine monophosphate (cAMP) production in cells using the LANCE Ultra cAMP assay kit (ParkinElmer), which are designed based on the homogeneous time-resolved fluorescence resonance energy transfer (TR-FRET) immunoassay.
CHO-K1 (Chinese hamster ovary) cells stably expressing human CRHR2-alpha (DiscoveRX, Cat. 95-0048C2) are grown in HAM's F12 media supplemented with 10% fetal bovine serum (FBS), 100 units/mL penicillin G, 100 microg/mL hygromycin and 0.5 microg/mL geneticin at 37° C. in 5% CO2 humidified incubator to 80% confluence. After 7 hours starvation treatment in culture media containing 0.1% FBS, the cells are washed with Hanks balanced salt solution (HBSS) and cryopreserved.
For cAMP assay, frozen cells are thawed and washed with HBSS, followed by resuspending cells in assay buffer (HBSS containing 0.1% bovine serum albumin, 0.5 mM isobutylmethylxanthine and 5 mM Hepes, pH 7.4) at the appropriate concentration for the assay. The cell suspensions are plated on 384-well microplates (Greiner Bio-One) at a density of 4,000 cells per well. After preincubating the cells with various concentrations of the compounds for 30 min at 25° C., an assay buffer containing EC90 concentration of agonist is added and the cells are incubated for 30 min at 25° C. Human urocortin2 (Peptide Institute) is used as agonists for CRHR2. For the termination of assay, europium-labeled cAMP tracer and ULight (registered trademark) dye labeled cAMP antibodies, both prepared with Lance-Ultra cAMP detection reagent (PerkinElmer) are added in the plate and incubate for 60 min at 25° C. After incubation, TR-FRET signal is detected by EnVision plate reader (PerkinElmer). The IC50 values for compounds are calculated from dose-response curves by fitting the percent inhibition using XLfit (ID Business Solutions).
For orientation: In TR-FRET formats the signal depends on donor and acceptor labels being close together.
Turning to `COc1ccc2c(c1)N(C[C@H]1CC[C@H](NC(=O)c3cc(Cl)cnc3C(F)F)CC1)C(=O)C2(O)c1ccccc1F` (stereo partly drawn) [Example 105, 5-chloro-2-(difluoromethyl)-N-((1r,4r)-4-((3-(2-fluorophenyl)-3-hydroxy-6-methoxy-2-oxoindolin-1-yl)methyl)cyclohexyl) nicotinamide], the IC50 (commonly the concentration needed to halve the response being measured) was below 200 nM.

As to `O=C(N[C@H]1CC[C@H](CN2C(=O)C(O)(c3cccc(F)c3F)c3ccccc32)CC1)c1cc(Cl)cnc1C(F)(F)F` (stereo partly drawn) [Example 113, 5-chloro-N-((1r,4r)-4-((3-(2,3-difluorophenyl)-3-hydroxy-2-oxoindolin-1-yl)methyl)cyclohexyl)-2-(trifluoromethyl)nicotinamide], the 50% inhibitory concentration (IC50) was below 200 nM.

Consider `COc1cc(C2(O)C(=O)N(C[C@H]3CC[C@H](NC(=O)c4cc(Cl)cnc4C(F)F)CC3)c3cc(F)ccc32)c(F)cn1` (stereo partly drawn) [Example 115, 5-chloro-2-(difluoromethyl)-N-((1r,4r)-4-((6-fluoro-3-(5-fluoro-2-methoxypyridin-4-yl)-3-hydroxy-2-oxoindolin-1-yl)methyl)cyclohexyl) nicotinamide], for which the 50% inhibitory concentration (IC50) is below 200 nM.

Consider `O=C(N[C@H]1CC[C@H](CN2C(=O)C(O)(c3cccc(F)c3F)c3ccc(F)cc32)CC1)c1cc(Cl)cnc1C(F)F` (stereo partly drawn) [Example 116, 5-chloro-2-(difluoromethyl)-N-((1r,4r)-4-((3-(2,3-difluorophenyl)-6-fluoro-3-hydroxy-2-oxoindolin-1-yl)methyl)cyclohexyl) nicotinamide], for which the half-maximal inhibitory concentration (IC50) is below 200 nM.

For `O=C(N[C@H]1CC[C@H](CN2C(=O)C(O)(c3cccc(Cl)c3F)c3ccc(F)cc32)CC1)c1cc(Cl)cnc1C(F)F` (stereo partly drawn) [Example 117, 5-chloro-N-((1r,4r)-4-((3-(3-chloro-2-fluorophenyl)-6-fluoro-3-hydroxy-2-oxoindolin-1-yl)methyl)cyclohexyl)-2-(difluoromethyl)nicotinamide], the 50% inhibitory concentration (IC50) is below 200 nM.

Turning to `O=C(N[C@H]1CC[C@H](CN2C(=O)C(O)(c3cc(F)ccc3F)c3ccc(F)cc32)CC1)c1cc(Cl)cnc1C(F)F` (stereo partly drawn) [Example 118, 5-chloro-2-(difluoromethyl)-N-((1r,4r)-4-((3-(2,5-difluorophenyl)-6-fluoro-3-hydroxy-2-oxoindolin-1-yl)methyl)cyclohexyl)nicotinamide], the IC50 was below 200 nM.

With `O=C(N[C@H]1CC[C@H](CN2C(=O)C(O)(c3ccc(Cl)cn3)c3ccc(F)cc32)CC1)c1cc(Cl)cnc1C(F)F` (stereo partly drawn) [Example 119, 5-chloro-N-((1r,4r)-4-((3-(5-chloropyridin-2-yl)-6-fluoro-3-hydroxy-2-oxoindolin-1-yl)methyl)cyclohexyl)-2-(difluoromethyl)nicotinamide], the half-inhibitory concentration (IC50) was below 200 nM.

As to `O=C(N[C@H]1CC[C@H](CN2C(=O)C(O)(c3cccc(F)c3F)c3cc(F)ccc32)CC1)c1cc(Cl)cnc1C(F)F` (stereo partly drawn) [Example 123, 5-chloro-2-(difluoromethyl)-N-((1r,4r)-4-((3-(2,3-difluorophenyl)-5-fluoro-3-hydroxy-2-oxoindolin-1-yl)methyl)cyclohexyl) nicotinamide], the IC50 was below 200 nM.

On to `COc1cc(C2(O)C(=O)N(C[C@H]3CC[C@H](NC(=O)c4cc(Cl)cnc4C(F)F)CC3)c3ccc(F)cc32)c(F)cn1` (stereo partly drawn) [Example 124, 5-chloro-2-(difluoromethyl)-N-((1r,4r)-4-((5-fluoro-3-(5-fluoro-2-methoxypyridin-4-yl)-3-hydroxy-2-oxoindolin-1-yl)methyl)cyclohexyl) nicotinamide], for which the IC50 was below 200 nM.

As to `O=C(N[C@H]1CC[C@H](CN2C(=O)C(O)(c3ccc(Cl)cn3)c3cc(F)ccc32)CC1)c1cc(Cl)cnc1C(F)F` (stereo partly drawn) [Example 125, 5-chloro-N-((1r,4r)-4-((3-(5-chloropyridin-2-yl)-5-fluoro-3-hydroxy-2-oxoindolin-1-yl)methyl)cyclohexyl)-2-(difluoromethyl)nicotinamide], the concentration for half-maximal inhibition (IC50) was below 200 nM.

For `COc1ccc(F)c(C2(O)C(=O)N(C[C@H]3CC[C@H](NC(=O)c4cc(Cl)cnc4C)CC3)c3ccccc32)c1` (stereo partly drawn) [Example 128, 5-chloro-N-((1r,4r)-4-((3-(2-fluoro-5-methoxyphenyl)-3-hydroxy-2-oxoindolin-1-yl)methyl)cyclohexyl)-2-methylnicotinamide], the 50% inhibitory concentration (IC50) is below 200 nM.

On to `Cc1cc(C2(O)C(=O)N(C[C@H]3CC[C@H](NC(=O)c4cc(Cl)cnc4C(F)F)CC3)c3ccccc32)cs1` (stereo partly drawn) [Example 130, 5-chloro-2-(difluoromethyl)-N-((1r,4r)-4-((3-hydroxy-3-(5-methylthiophen-3-yl)-2-oxoindolin-1-yl)methyl)cyclohexyl) nicotinamide], for which the half-maximal inhibitory concentration (IC50) is below 200 nM.

For the molecule `Cc1ncc(Cl)cc1C(=O)N[C@H]1CC[C@H](CN2C(=O)C(O)(c3cc(F)cc(F)c3F)c3ccccc32)CC1` (stereo partly drawn) [Example 132, 5-chloro-N-((1r,4r)-4-((3-hydroxy-2-oxo-3-(2,3,5-trifluorophenyl)indolin-1-yl)methyl)cyclohexyl)-2-methylnicotinamide], the half-inhibitory concentration (IC50) is below 200 nM.

With `O=C(N[C@H]1CC[C@H](CN2C(=O)C(O)(c3cc(F)cc(F)c3F)c3ccccc32)CC1)c1cc(Cl)cnc1C(F)F` (stereo partly drawn) [Example 133, 5-chloro-2-(difluoromethyl)-N-((1r,4r)-4-((3-hydroxy-2-oxo-3-(2,3,5-trifluorophenyl)indolin-1-yl)methyl)cyclohexyl) nicotinamide], the IC50 is below 200 nM.

For `O=C(N[C@H]1CC[C@H](CN2C(=O)C(O)(c3ccc(F)c(F)c3F)c3ccccc32)CC1)c1cc(Cl)cnc1C(F)F` (stereo partly drawn) [Example 135, 5-chloro-2-(difluoromethyl)-N-((1r,4r)-4-((3-hydroxy-2-oxo-3-(2,3,4-trifluorophenyl)indolin-1-yl)methyl)cyclohexyl) nicotinamide], the 50% inhibitory concentration (IC50) is below 200 nM.

As for `COc1ccc(C2(O)C(=O)N(C[C@H]3CC[C@H](NC(=O)c4cc(Cl)cnc4C)CC3)c3ccccc32)c(F)c1F` (stereo partly drawn) [Example 139, 5-chloro-N-((1r,4r)-4-((3-(2,3-difluoro-4-methoxyphenyl)-3-hydroxy-2-oxoindolin-1-yl)methyl)cyclohexyl)-2-methylnicotinamide], the IC50 was below 200 nM.

As to `O=C(N[C@H]1CC[C@H](CN2C(=O)C(O)(c3ccc(Cl)cn3)c3c(F)cccc32)CC1)c1cc(Cl)cnc1C(F)F` (stereo partly drawn) [Example 140, 5-chloro-N-((1r,4r)-4-((3-(5-chloropyridin-2-yl)-4-fluoro-3-hydroxy-2-oxoindolin-1-yl)methyl)cyclohexyl)-2-(difluoromethyl)nicotinamide], the half-inhibitory concentration (IC50) is below 200 nM.

For the molecule `Cc1ncc(Cl)cc1C(=O)N[C@H]1CC[C@H](CN2C(=O)C(O)(c3cccc(F)c3F)c3ccc(F)cc32)CC1` (stereo partly drawn) [Example 143, 5-chloro-N-((1r,4r)-4-((3-(2,3-difluorophenyl)-6-fluoro-3-hydroxy-2-oxoindolin-1-yl)methyl)cyclohexyl)-2-methylnicotinamide], the IC50 is below 200 nM.

As for `Cc1ccc2c(c1)N(C[C@H]1CC[C@H](NC(=O)c3cc(Cl)cnc3C(F)F)CC1)C(=O)C2(O)c1ccccc1F` (stereo partly drawn) [Example 148, 5-chloro-2-(difluoromethyl)-N-((1r,4r)-4-((3-(2-fluorophenyl)-3-hydroxy-6-methyl-2-oxoindolin-1-yl)methyl)cyclohexyl) nicotinamide], the half-maximal inhibitory concentration (IC50) was below 200 nM.

In the case of `Cc1ccc2c(c1)N(C[C@H]1CC[C@H](NC(=O)c3cc(Cl)cnc3C(F)F)CC1)C(=O)C2(O)c1ccncc1F` (stereo partly drawn) [Example 149, 5-chloro-2-(difluoromethyl)-N-((1r,4r)-4-((3-(3-fluoropyridin-4-yl)-3-hydroxy-6-methyl-2-oxoindolin-1-yl)methyl)cyclohexyl) nicotinamide], the half-inhibitory concentration (IC50) is below 200 nM.

For `COc1ccc(F)c(C2(O)C(=O)N(C[C@H]3CC[C@H](NC(=O)c4cc(Cl)cnc4C(F)F)CC3)c3cc(F)ccc32)c1` (stereo partly drawn) [Example 156, 5-chloro-2-(difluoromethyl)-N-((1r,4r)-4-((6-fluoro-3-(2-fluoro-5-methoxyphenyl)-3-hydroxy-2-oxoindolin-1-yl)methyl)cyclohexyl) nicotinamide], the half-maximal inhibitory concentration (IC50) was below 200 nM.

(Values after patent publication US12421191B2, “3-hydroxyoxindole derivatives as CRHR2 antagonist” (RaQualia Pharma Inc., priority 2020, dated 2025).)
